Data set [1] has as its system spontaneous hypertensive rats. Briefly: Arterial pressure and phenylephrine-induced hypertensive response after seven days of gavage (DGLA, aspirin, DGLA + aspirin). In kind it is in vivo, rat. The procedure:
An in vivo investigation of anti-hypertension efficacy following co-administration of DGLA and aspirin in spontaneous hypertensive rats was conducted. This experiment investigated the efficacy of DGLA when co-administered chronically with aspirin to reduce the hypertensive response induced acutely by phenylephrine in spontaneous hypertensive rats. Spontaneously hypertensive adult male rats (250-300 g), bred by Charles River Laboratories, were used for this assay. The animals were identified upon arrival as per CCPA guidelines. The animals were pair-housed by group (low dose+aspirin, high dose+aspirin or aspirin alone) for the duration of the oral gavage prior to surgery. All animal care and vivarium maintenance was recorded, with documents kept at the test facility.
The concentrations of DGLA to be tested (50 and 500 mg/kg) as well as the concentration of aspirin (10 mg/kg) were selected by the Sponsor based on information available at the time of design of this study. They were selected to cover a range of concentrations useful for the identification of the mechanism of action of the test article.
All solution preparations were documented on a Solution Contents Form, defining labelling information and all relevant information on reagents: batch number, storage conditions, contents, and preparation/expiry dates.
The test article was formulated using olive oil as the vehicle. This stock solution was then administered by oral gavage once per day for seven consecutive days. A low and a high dose (50 mg/kg and 500 mg/kg) were tested.
A 5 mg/ml stock solution of aspirin was prepared by dissolving the appropriate amount of aspirin in 100% DMSO which was then diluted in water. The concentration of DMSO was less than 1%. The appropriate volume was administered by oral gavage to each animal once per day for seven consecutive days. The stock solution was stored at room temperature and was considered stable for the duration of the gavage.
The appropriate volume was administered to each animal by an intravenous injection at the end of the experiment on the surgery day. The stock solution was stored at 4° C. and was considered stable for the duration of the experiment.
A stock solution of phenylephrine of 1 mg/ml were prepared in PBS (pH=7.4±0.05). The stock solution was stored at 4° C. The expiration date was set at 14 days after preparation.
Male spontaneous hypertensive rats weighing approximately 300 g arrived at the facility at least two days before beginning the oral gavage. Animals were assigned to one of three groups (low dose+aspirin, high dose+aspirin, and aspirin), and were pair-housed during the acclimation period. Each group (n=4) received the appropriate compound by oral gavage using a 16 G feeding needle. The stock solution was administered once per day for seven consecutive days. On the seventh day of administration, the animals underwent surgery and hypertensive monitoring.
Rats were anesthetized with a 2.5-3.0% isoflurane-O2 mixture in an induction box. When the animals were removed from the induction box, they were connected onto a nose cone to maintain anesthesia during the tracheotomy. The animals were tracheotomised with an endotracheal tube (7 cm length from connector to the tip made with a PE205 tube from BD and a 16 G needle) to facilitate spontaneous breathing, stabilize hemodynamics, and to keep the rat under anesthesia with an isoflurane-O2 mixture. Two catheters were inserted: one in the right femoral artery for systemic arterial pressure (SAP) measurement, and one in the right femoral vein for delivery of the hypertensor and positive control. ECG signals were acquired with ECG contacts placed in a Lead-1 configuration on the anaesthetized animal, and a pulse oxymeter was attached to the animal's hind paw to enable continuous monitoring of the general condition of the rat during the surgical procedure.

The conditions of data set [2]: in vivo.
Protocol: In Part one of the study, plasma PK analysis of Dihomo-Gamma-Linolenic Acid (DGLA) and 15-Hydroxyeicosatrienoic acid (15-HETrE), in fasted subjects alone, was performed for Cohorts one to four up to 312 hours post dose on study Days 1 to 5, 8, 14, and the follow-up visit.
Analysis of plasma concentrations of DGLA (free and total) and free 15-HETrE were performed in blood samples obtained from the subjects.
Analysis of all plasma and skin blister fluid samples was performed using validated methods. Concentrations of free and total DGLA were measured in plasma and skin blister fluid by liquid chromatography with tandem mass spectrometry (LC/MS/MS); the quantitation range was 100 to 10,000 ng/mL for free DGLA and 5000 to 500,000 ng/mL for total DGLA. Plasma concentrations of free 15-HETrE were measured by LC/MS/MS with a quantitation range of 100 to 10,000 ng/mL.
Setting [3] is: Aspirin 10 mg/kg, seven days of gavage, before phenylephrine.
Where [4] appears, read: aspirin only (10 mg/kg), seven consecutive days of gavage.
The mark [5] stands for this setting: aspirin only (10 mg/kg), seven consecutive days of gavage, Rat #1-#5.

Where “and” joins values, the source holds several entries; their conditions need not be identical. Identical values can stand only once. Marks after values point to notes of the source that are not given here.

Consider `CNC[C@H](O)c1cccc(O)c1` [phenylephrine], for which the “hypertensor effect on mean systemic arterial pressure” value in data set [1] (3, 10, 20 μg/kg iv, rats fed with aspirin) is “increased mean systemic arterial pressure with increasing doses”.

Consider `CC(=O)Oc1ccccc1C(=O)O` [Aspirin, aspirin], for which the “Arterial pressure, Diastol” value in data set [1] (setting [3]) is given as 100 mmHg. The “Arterial pressure, Systol” value in data set [1] (setting [3]) is recorded as 190 mmHg. For the same compound, the “Mean systemic arterial pressure” value in data set [1] (setting [3]) is given as 130 mmHg. Moreover, the “Mean arterial pressure at baseline, Average SAP” value in data set [1] (setting [4]) was 136.8 mm of Hg. Further, the “Mean arterial pressure with an intravenous dose of Phenylephrine 20 μg/kg, Average SAP” value in data set [1] (setting [4]) was 174.3 mm of Hg. For the same compound, the “Mean arterial pressure at baseline, individual rats” value in data set [1] (setting [5]) is 86.75 mm of Hg and 107.64 mm of Hg and 160.50 mm of Hg and 141.36 mm of Hg and 187.84 mm of Hg. For the same compound, in data set [1] (setting [5]), the “Mean arterial pressure with an intravenous dose of Phenylephrine 20 μg/kg, individual rats” value is 149.35 mm of Hg and 120.84 mm of Hg and 202.61 mm of Hg and 194.76 mm of Hg and 203.90 mm of Hg. Further, the “Mean Arterial Pressure, individual rats” value was 86.75 mmHg and 107.64 mmHg and 160.50 mmHg and 141.36 mmHg and 187.84 mmHg in data set [1] (gavage Aspirin 10 mg/kg 7 days, Baseline); 97.24 mmHg and 122.18 mmHg and 168.06 mmHg and 150.54 mmHg and 192.06 mmHg in data set [1] (gavage Aspirin 10 mg/kg 7 days, PHE 3 μg/kg iv); 137.63 mmHg and 122.18 mmHg and 203.75 mmHg and 169.61 mmHg and 201.69 mmHg in data set [1] (gavage Aspirin 10 mg/kg 7 days, PHE 10 μg/kg iv); 93.22 mmHg and 52.61 mmHg and 185.63 mmHg and 171.45 mmHg and 187.96 mmHg in data set [1] (gavage Aspirin 10 mg/kg 7 days, PHE 10 μg/kg iv after Carvedilol); 149.35 mmHg and 120.84 mmHg and 202.61 mmHg and 194.76 mmHg and 203.90 mmHg in data set [1] (gavage Aspirin 10 mg/kg 7 days, PHE 20 μg/kg iv); 98.38 mmHg and 64.32 mmHg and 164.88 mmHg and 159.32 mmHg and 177.61 mmHg in data set [1] (gavage Aspirin 10 mg/kg 7 days, second Baseline after PHE 20 μg/kg). Moreover, the “Mean Arterial Pressure, Average” value in data set [1] (gavage Aspirin 10 mg/kg 7 days, Baseline, n=5) is listed as 136.8 mmHg; in data set [1] (gavage Aspirin 10 mg/kg 7 days, PHE 3 μg/kg iv, n=5), 146.0* mmHg; in data set [1] (gavage Aspirin 10 mg/kg 7 days, PHE 10 μg/kg iv after Carvedilol, n=5) it was 138.2 § mmHg; in data set [1] (gavage Aspirin 10 mg/kg 7 days, PHE 10 μg/kg iv, n=5), 167.0* mmHg; in data set [1] (gavage Aspirin 10 mg/kg 7 days, PHE 20 μg/kg iv, n=5) it was 174.3* mmHg; in data set [1] (gavage Aspirin 10 mg/kg 7 days, second Baseline after PHE 20 μg/kg, n=5) it was 132.9** mmHg.

For the compound `CCCCC[C@H](O)/C=C/C=C\C/C=C\CCCCCCC(=O)O` [15-HETrE, 15-Hydroxyeicosatrienoic acid], the “plasma free 15-HETrE concentrations after DS107G” value in data set [2] is less than 100 ng/mL.

Regarding `COc1ccccc1OCCNCC(O)COc1cccc2[nH]c3ccccc3c12` (stereo not shown) [Carvedilol, carvedilol], in data set [1] (0.1 mg/kg iv, DGLA+aspirin-fed animals), the “effect on blood pressure” value is on record as “significant decrease in blood pressure”. Also, the “effect on mean systemic arterial pressure when added after phenylephrine” value in data set [1] (0.1 mg/kg iv, aspirin-fed rats) is reported as “significant decrease”. In addition, the “Mean Arterial Pressure, individual rats” value is 57.12 mmHg and 44.38 mmHg and 145.56 mmHg and 134.82 mmHg and 115.06 mmHg in data set [1] (gavage Aspirin 10 mg/kg 7 days, Carvedilol 0.1 mg/kg iv); 115.29 mmHg and 97.01 mmHg and 126.33 mmHg and 59.10 mmHg and 58.93 mmHg in data set [1] (gavage DGLA 50 mg/kg + Aspirin 10 mg/kg 7 days, Carvedilol 0.1 mg/kg iv); 62.13 mmHg and 57.56 mmHg and 57.32 mmHg and 52.11 mmHg in data set [1] (gavage DGLA 500 mg/kg + Aspirin 10 mg/kg 7 days, Carvedilol 0.1 mg/kg iv). In addition, the “Mean Arterial Pressure, Average SAP” value is on record as 91.3 † mmHg in data set [1] (gavage DGLA 50 mg/kg + Aspirin 10 mg/kg 7 days, Carvedilol 0.1 mg/kg iv, n=5) and 57.3 † mmHg in data set [1] (gavage DGLA 500 mg/kg + Aspirin 10 mg/kg 7 days, Carvedilol 0.1 mg/kg iv, n=4).

The values above are taken from US20180333382A1, “PHARMACEUTICAL COMPOSITIONS COMPRISING DGLA AND USE OF SAME” (DS Biopharma Limited, priority 2017, published 2018).
